Reference: patent publication US20090022803A1, “Oral Formulations For Delivery of Catecholic Butanes Including Ndga Compounds” (priority 2005, published 2009)

Test system: HeLa cells
Experiment: Cell proliferation and cell death after 72 hr treatment, trypan blue exclusion
Assay type: cell-based, human
Settings: CPE formulation, lots EM1001 and EM1002
Method: M4N in 10% (w/v) HP-β-CD and 25% (v/v) PEG 300 (hereafter, the “CPE formulation”), M4N in 30% (w/v) HP-β-CD and 25% (v/v) PEG 300 (hereafter, the “CPE 25/30 formulation”) and M4N in 27% (w/v) HP-β-CD and 33% (v/v) PEG 300 (hereafter, the “CPE 33/27 formulation”) was tested for their effects on cell death and proliferation on two different tumor cell lines: HeLa, an HPV-18 positive human cervical cancer cell line, and C-33A, an HPV-negative human cervical cancer cell line. M4N in DMSO was also tested in parallel. Both tumor cell lines were treated with increasing amounts of M4N: 0 μM, 20 μM, 40 μM, 60 μM and 80 μM, for 72 hr with the DMSO or the CPE formulation. […] After 72 hr of treatment or no treatment, the total number of cells and the number of live cells in each sample were counted, using the trypan blue exclusion method. The cell proliferation rate and the percentage of dead cells in each sample were analyzed. […]
Various lots of M4N were tested to show the effectiveness of the drug of different lots. […] After 72 hr of treatment or no treatment, the total number of cells and the number of live cells in each sample were counted, using the trypan blue exclusion method. The cell proliferation rate and the percentage of dead cells in each sample were analyzed.

COc1ccc(C[C@@H](C)[C@@H](C)Cc2ccc(OC)c(OC)c2)cc1OC [Formulation M4N, meso-1,4-bis(3,4-dimethoxyphenyl)-2,3-dimethylbutane]
effectiveness of different lots of M4N: remains the same
